PubChem BioAssay (NCI)
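96-well plates; 48 h exposure; 5 concentrations. Endpoints by linear interpolation between flanking doses. Not reached: highest tested concentration assigned. TGI: total growth inhibition.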

How the values were obtained:
Test in all cases: NCI-60 cell line screen, 48 h
SN12C renal = system: SN12C renal
COLO 205 colon = system: COLO 205 colon
KM12 colon = system: KM12 colon
DU-145 prostate = system: DU-145 prostate
SNB-19 CNS = system: SNB-19 CNS
SK-MEL-28 melanoma = system: SK-MEL-28 melanoma
TK-10 renal = system: TK-10 renal
UACC-257 melanoma = system: UACC-257 melanoma
A498 renal = system: A498 renal
HCC-2998 colon = system: HCC-2998 colon
NCI-H226 lung = system: NCI-H226 lung
OVCAR-4 ovarian = system: OVCAR-4 ovarian
M14 melanoma = system: M14 melanoma
SF-539 CNS = system: SF-539 CNS
HCT-116 colon = system: HCT-116 colon
MCF7 breast = system: MCF7 breast
MALME-3M melanoma = system: MALME-3M melanoma
EKVX NSCLC = system: EKVX NSCLC
RXF 393 renal = system: RXF 393 renal
OVCAR-5 ovarian = system: OVCAR-5 ovarian
MDA-N = system: MDA-N
SK-MEL-2 melanoma = system: SK-MEL-2 melanoma
IGROV1 ovarian = system: IGROV1 ovarian
ACHN renal = system: ACHN renal
OVCAR-3 ovarian = system: OVCAR-3 ovarian
OVCAR-8 ovarian = system: OVCAR-8 ovarian
786-0 renal = system: 786-0 renal
BT-549 breast = system: BT-549 breast
LOX IMVI melanoma = system: LOX IMVI melanoma
SW-620 colon = system: SW-620 colon
HOP-62 NSCLC = system: HOP-62 NSCLC
MDA-MB-231 breast = system: MDA-MB-231 breast
SK-OV-3 ovarian = system: SK-OV-3 ovarian
CAKI-1 renal = system: CAKI-1 renal
NCI-H460 lung = system: NCI-H460 lung
HCT-15 colon = system: HCT-15 colon
MDA-MB-435 = system: MDA-MB-435
UACC-62 melanoma = system: UACC-62 melanoma
K-562 leukemia = system: K-562 leukemia
T-47D breast = system: T-47D breast
CCRF-CEM leukemia = system: CCRF-CEM leukemia
SF-268 CNS = system: SF-268 CNS
A549 NSCLC = system: A549 NSCLC
HOP-92 NSCLC = system: HOP-92 NSCLC
PC-3 prostate = system: PC-3 prostate
NCI/ADR-RES ovarian = system: NCI/ADR-RES ovarian
MOLT-4 leukemia = system: MOLT-4 leukemia
SF-295 CNS = system: SF-295 CNS
HL-60(TB) leukemia = system: HL-60(TB) leukemia
RPMI-8226 leukemia = system: RPMI-8226 leukemia
NCI-H23 lung = system: NCI-H23 lung
HT29 colon = system: HT29 colon
U251 CNS = system: U251 CNS
HS 578T breast = system: HS 578T breast
NCI-H522 lung = system: NCI-H522 lung
SNB-75 CNS = system: SNB-75 CNS
SK-MEL-5 melanoma = system: SK-MEL-5 melanoma
UO-31 renal = system: UO-31 renal
SR leukemia = system: SR leukemia

Measured: TGI

COc1ccc(OC/C(N=Cc2ccncc2)=N/NC(=O)c2ccncc2)cc1
39.8 µM: MDA-N
96.4 µM: HOP-92 NSCLC
62.4 µM: MDA-MB-435
not listed: SNB-75 CNS | SK-MEL-5 melanoma | UO-31 renal | SR leukemia
> 100 µM: all other assays above

COc1cc(OC)cc(Oc2nc3cc(F)c(F)cc3nc2-c2ccccc2)c1
not listed: HCC-2998 colon | MDA-MB-231 breast | K-562 leukemia | RPMI-8226 leukemia
> 100 µM: all other assays above

COC(=O)C1=C(C)NC(C)=C(C(=O)OC)C1c1cccc(N=O)c1
29.7 µM: DU-145 prostate | MDA-MB-435
40.4 µM: T-47D breast
27.6 µM: ACHN renal | UACC-62 melanoma
30.3 µM: 786-0 renal
33.5 µM: SF-539 CNS
11.8 µM: NCI-H522 lung
51 µM: NCI/ADR-RES ovarian
31.7 µM: PC-3 prostate
32.6 µM: COLO 205 colon
22.4 µM: CAKI-1 renal
32.3 µM: OVCAR-5 ovarian
32.5 µM: HCT-15 colon
44.3 µM: SK-OV-3 ovarian
28.5 µM: OVCAR-8 ovarian
36 µM: EKVX NSCLC
98.2 µM: A498 renal
29 µM: OVCAR-3 ovarian
21 µM: UO-31 renal
30.8 µM: SF-268 CNS
45.9 µM: HCC-2998 colon
30.7 µM: U251 CNS
56.2 µM: HOP-62 NSCLC
26.2 µM: OVCAR-4 ovarian | MDA-N
17.7 µM: SW-620 colon
28.2 µM: TK-10 renal
29.8 µM: SK-MEL-5 melanoma
20.1 µM: HOP-92 NSCLC
30.2 µM: KM12 colon | UACC-257 melanoma
30.4 µM: SK-MEL-28 melanoma
27.9 µM: MDA-MB-231 breast
36.2 µM: NCI-H23 lung
31 µM: BT-549 breast | NCI-H460 lung
27 µM: M14 melanoma
33.3 µM: SN12C renal
37.8 µM: NCI-H226 lung
28.8 µM: MALME-3M melanoma
26.8 µM: RXF 393 renal
30.6 µM: IGROV1 ovarian
25.8 µM: HL-60(TB) leukemia
34 µM: HT29 colon
40.1 µM: MCF7 breast
31.6 µM: LOX IMVI melanoma
23.9 µM: HCT-116 colon
30.9 µM: SK-MEL-2 melanoma
not listed: HS 578T breast | SNB-75 CNS
> 100 µM: all other assays above
